# Measured values: patent US5824687A, “Pyridinium salts and their use for the control of helicobacter bacteria” (BYK Gulden Lomberg Chemische Fabrik GmbH, priority 1993, dated 1998)
# Tested on: Helicobacter pylori
# Assay: Activity against Helicobacter pylori (MIC, Columbia agar (Oxoid), growth period of 4 days)
# Assay type: cell-based
# Conditions: 96 h, methodology of Tomoyuki Iwahi et al.
# Source text: The compounds according to the invention were investigated with respect to their activity against Helicobacter pylori following the methodology described by Tomoyuki Iwahi et al. (Antimicrobial Agents and Chemotherapy,1991, 490-496) using Columbia agar (Oxoid) and with a growth period of 4 days.
row,SMILES,MIC [µg/mL]
1,"Cc1c(C)[n+]2cccc(OCc3ccccc3)c2n1Cc1ccc(F)cc1 [Compound 3, 8-Benzyloxy-1-(4-fluorobenzyl)-2,3-dimethylimidazo-[1,2-a]pyridinium bromide]",≤ 10
2,"Cc1c(CC#N)[n+]2cccc(OCc3ccccc3)c2n1CCc1ccccc1 [Compound 6, 8-Benzyloxy-3-cyanomethyl-2-methyl-1-phenethylimidazo[1,2-a]pyridinium bromide]",≤ 10
3,"COC(=O)c1ccc(Cn2c(C)c(C)[n+]3cccc(OCc4ccccc4)c23)cc1 [Compound 4, 8-Benzyloxy-1-(4-methoxycarbonylbenzyl)-2,3-dimethylimidazo[1,2-a]pyridinium bromide]",≤ 10
4,"Cc1c(C)[n+]2cccc(OCc3ccccc3)c2n1Cc1cc(F)cc(F)c1 [Compound 10, 8-Benzyloxy-1-(3,5-difluorobenzyl)-2,3-dimethylimidazo[1,2-a]pyridiniumbromide]",≤ 10
5,"Cc1c(C)[n+]2cccc(OCc3ccccc3)c2n1CCc1ccccc1 [Compound 5, 8-Benzyloxy-2,3-dimethyl-1-phenethylimidazo[1,2-a]pyridinium bromide]",≤ 10
6,"Cc1c(C)[n+]2cccc(OCc3ccccc3)c2n1Cc1cccc(C#N)c1 [Compound 13, 8-Benzyloxy-1-(3-cyanobenzyl)-2,3-dimethylimidazo[1,2-a]pyridinium bromide]",≤ 10
7,"Cc1c(C)[n+]2cccc(OCc3ccccc3)c2n1Cc1ccc2ccccc2c1 [Compound 12, 8-Benzyloxy-2,3-dimethyl-1-(2-naphthylmethyl)imidazo[1,2-a]pyridinium bromide]",≤ 10
8,"C#CCc1c(C)n(CCc2ccccc2)c2c(OCc3ccccc3)ccc[n+]12 [Compound 7, 8-Benzyloxy-2-methyl-1-phenethyl-3-(2-propynyl)imidazo[1,2-a]pyridiniumbromide]",≤ 10
9,"Cc1c(C)[n+]2cccc(OCc3ccccc3)c2n1Cc1ccc(-c2ccccc2)cc1 [Compound 18, 8-Benzyloxy-1-(4-biphenylmethyl)-2,3-dimethylimidazo[1,2-a]pyridinium bromide]",≤ 10
